Source: publication PMC8469489, “Effect of Lactic Acid Bacteria on the Pharmacokinetics and Metabolism of Ginsenosides in Mice” (Pharmaceutics, 2021)
Each block holds one compound with its values, some of them ahead of it.

Assays:
[1] = test system: lactic acid bacteria (LAB); assay: In vitro RGE fermentation with LAB; settings: 7 days incubation
[2] = Recovery of ginsenosides from urine and feces for 48 h after RGE, amoxicillin vs control; settings: for Fecal recovery, change by the amoxicillin treatment: feces 48 h after single oral RGE 2 g/kg, vs control; for Ginsenosides identified in urine: urine 48 h after single oral RGE 2 g/kg
Protocol: Aliquots (200 μL) of an IS (0.05 ng/mL berberine in methanol) were added to 30 μL of plasma or urine samples. Aliquots (600 μL) of an IS methanol solution containing 0.05 ng/mL berberine were added to 100 μL of 10% feces homogenate samples. […] After centrifugation, 200 μL of the supernatant was transferred to a clean tube and dried under a nitrogen stream at 40 °C. The residue was reconstituted using 100 μL of 70% methanol supplemented with 0.1% formic acid, and a 10-μL aliquot was injected into the LC–MS/MS system.

[3] = Recovery of ginsenosides from urine and feces for 48 h after RGE, amoxicillin with or without LAB; settings: for Fecal recovery, change by LAB treatment: feces 48 h after single oral RGE 2 g/kg, Amoxicillin + LAB vs amoxicillin
Protocol: (§1) Mice received amoxicillin (n = 12, 20 mg/kg, dissolved in water at 2 mL/kg, twice daily) for 3 days via oral gavage. From the 4th day, mice from the LAB + amoxicillin treatment group received LAB (2 g/kg suspended in water at 2 mL/kg, once daily) for 7 days via oral gavage. Mice from the amoxicillin treatment group received water (2 mL/kg, once daily) for 7 days via oral gavage.

[4] = test system: lactic acid bacteria (LAB); assay: Incubation of single ginsenoside with LAB (formation rate of metabolite ginsenoside); assay type: in vitro ADME; settings: 7 days, 37 °C, MRS broth
Protocol: To compare the involvement of LAB on individual ginsenoside, an aliquot (10 μL) of each ginsenoside stock solution (10 mM in methanol) was mixed with autoclaved MRS broth (550 mg/10 mL in distilled water) and added 2 g of LAB (contained 1 billion CFU). Then, the mixture was incubated for 7 days in a shaking incubator at 37 °C and 300 rpm. For the analysis of ginsenosides, 0.2 mL aliquot of incubation mixture was collected every 24 h for 7 days. The incubation medium was diluted 100-fold with distilled water and stored at −80 °C. For the ginsenoside analysis, 200 μL of an IS solution (0.05 ng/mL berberine in methanol) was added to 30 μL of 100-fold diluted samples.

[5] = Pharmacokinetics of ginsenosides after single oral RGE after amoxicillin with or without repeated LAB treatment; settings: single oral RGE 2 g/kg; for AUC: AUC 0 to 48 h
Protocol: as §1
Blood sampling was performed using a sparse sampling method via the right or left retro-orbital vein under isoflurane anesthesia at 0, 2, 4, and 8 h after the RGE administration through the heparinized capillary tube. […] After centrifugation of the blood samples at 10,000× g for 1 min, 30 μL aliquots of plasma were stored at −80 °C until the analysis of the ginsenosides. Subsequent protocols were identical to the amoxicillin treated group.
Pharmacokinetic parameters were calculated using WinNonlin (version 5.1, Pharsight, Mountain View, CA, USA) by a non-compartmental analysis.

[6] = Pharmacokinetics of ginsenosides after single oral RGE with or without amoxicillin treatment; assay type: in vivo, mice; settings: single oral RGE 2 g/kg; for AUC: AUC 0 to 48 h
Protocol: Male ICR mice (7-weeks-year-old, 30–35 g) were purchased from Samtako Co. (Osan, Kyunggi-do, Korea). Animals were acclimatized for 1 week in an animal facility at Kyungpook National University. Food and water were available ad libitum.
Before blood sampling, mice were anesthetized using isoflurane (isoflurane vaporizer to 2% with oxygen flow at 0.8 L/min) for 5 min.

[7] = design: method as in PMID 32023909; settings: cited from earlier work
[8] = Amoxicillin 3 days pretreatment
[9] = Amoxicillin 3 days then water 7 days

Alteration of ginsenoside by fermentation of RGE with LAB [1]: gradual decrease | Fecal recovery, change by the amoxicillin treatment [2]: increased | Ginsenosides identified in urine [2]: identified in urine | Fecal recovery, change by LAB treatment [3]: significantly decreased | Metabolite formation on incubation of single ginsenoside with LAB [4]: produced GRh1
Compound: CC(C)=CCC[C@](C)(O[C@@H]1O[C@H](CO)[C@@H](O)[C@H](O)[C@H]1O)[C@H]1CC[C@]2(C)[C@@H]1[C@H](O)C[C@@H]1[C@@]3(C)CC[C@H](O)C(C)(C)[C@@H]3[C@@H](O[C@@H]3O[C@H](CO)[C@@H](O)[C@H](O)[C@H]3O)C[C@]12C [GRg1]

Alteration of ginsenoside by fermentation of RGE with LAB [1]: gradual decrease | Fecal recovery, change by the amoxicillin treatment [2]: increased | Fecal recovery, change by LAB treatment [3]: significantly decreased | Metabolite formation on incubation of single ginsenoside with LAB [4]: produced GRh1
Compound: CC(C)=CCC[C@](C)(O)[C@H]1CC[C@]2(C)[C@@H]1[C@H](O)C[C@@H]1[C@@]3(C)CC[C@H](O)C(C)(C)[C@@H]3[C@@H](O[C@@H]3O[C@H](CO)[C@@H](O)[C@H](O)[C@H]3O[C@@H]3O[C@H](CO)[C@@H](O)[C@H](O)[C@H]3O)C[C@]12C [GRf]

The remaining lines, values behind:

Compound: CC(C)=CCC[C@](C)(O[C@@H]1O[C@H](CO)[C@@H](O)[C@H](O)[C@H]1O)[C@H]1CC[C@]2(C)[C@@H]1[C@H](O)C[C@@H]1[C@@]3(C)CC[C@H](O[C@@H]4O[C@H](CO)[C@@H](O)[C@H](O)[C@H]4O)C(C)(C)[C@@H]3CC[C@]12C [GF2]
Alteration of ginsenoside by fermentation of RGE with LAB [1]: gradual decrease | Fecal recovery, change by the amoxicillin treatment [2]: significantly decreased | Fecal recovery, change by LAB treatment [3]: remained similar | Metabolite formation on incubation of single ginsenoside with LAB [4]: the highest among the ginsenoside formation rate | Plasma exposure / pharmacokinetic parameters, LAB treatment compared with amoxicillin group [5]: increased

Compound: CC(C)=CCC[C@](C)(O[C@@H]1O[C@H](CO)[C@@H](O)[C@H](O)[C@H]1O)[C@H]1CC[C@]2(C)[C@@H]1[C@H](O)C[C@@H]1[C@@]3(C)CC[C@H](O[C@@H]4O[C@H](CO)[C@@H](O)[C@H](O)[C@H]4O[C@@H]4O[C@H](CO)[C@@H](O)[C@H](O)[C@H]4O)C(C)(C)[C@@H]3CC[C@]12C [GRd]
Alteration of ginsenoside by fermentation of RGE with LAB [1]: gradual decrease | Ginsenosides identified in urine [2]: identified in urine | Fecal recovery, change by LAB treatment [3]: significantly decreased | Urinary excretion, Amoxicillin + LAB compared with amoxicillin group ([3]; urine 48 h after single oral RGE 2 g/kg): increased | Metabolite formation on incubation of single ginsenoside with LAB [4]: produced GRg3 with the highest formation rate | Cmax [6, 8]: 3.2 ± 1.6 ng/mL | Half-Life [6, 8]: 29.1 ± 8.6 h | MRT [6, 8]: 24.0 ± 2.1 h | Tmax [6, 8]: 24.7 ± 23.0 h | AUC [6, 8]: 132.4 ± 77 ng·h/mL | Cmax ([6]; Control, plasma): 8.6 ± 1.8 ng/mL | Half-Life ([6]; Control, plasma): 24.2 ± 3.1 h | MRT ([6]; Control, plasma): 21.3 ± 3.0 h | Tmax ([6]; Control, plasma): 13.3 ± 9.2 h | AUC ([6]; Control, plasma, n = 3): 278.8 ± 117 ng·h/mL | Plasma concentrations, amoxicillin treatment compared to the control group [6]: decreased | Ratio of liver AUC to plasma AUC [7]: < 0.2 | Cmax [5, 9]: 6.5 ± 5.1 ng/mL | Half-Life [5, 9]: 29.2 ± 2.7 h | MRT [5, 9]: 24.1 ± 3.9 h | Tmax [5, 9]: 5.3 ± 2.3 h | AUC [5, 9]: 213.1 ± 151.3 ng·h/mL | AUC ([5]; Amoxicillin + LAB (LAB 2 g/kg once daily 7 days)): 618.1 ± 385.6 ng·h/mL | Cmax ([5]; Amoxicillin + LAB): 18.4 ± 6.9 ng/mL | Half-Life ([5]; Amoxicillin + LAB): 25.5 ± 3.8 h | MRT ([5]; Amoxicillin + LAB): 20.6 ± 3.7 h | Tmax ([5]; Amoxicillin + LAB): 16.0 ± 9.2 h | Detection in mouse plasma following repeated LAB administration in addition to amoxicillin [5]: detected | Plasma exposure / pharmacokinetic parameters, LAB treatment compared with amoxicillin group [5]: increased | Plasma exposure / pharmacokinetic parameters, LAB treatment compared with amoxicillin group ([5]; listed as Rd): significantly increased

Compound: CC(C)=CCC[C@](C)(O[C@@H]1O[C@H](CO[C@@H]2O[C@H](CO)[C@@H](O)[C@H](O)[C@H]2O)[C@@H](O)[C@H](O)[C@H]1O)[C@H]1CC[C@]2(C)[C@@H]1[C@H](O)C[C@@H]1[C@@]3(C)CC[C@H](O[C@@H]4O[C@H](CO)[C@@H](O)[C@H](O)[C@H]4O[C@@H]4O[C@H](CO)[C@@H](O)[C@H](O)[C@H]4O)C(C)(C)[C@@H]3CC[C@]12C [GRb1, 20(S)-ginsenosides Rb1]
Alteration of ginsenoside by fermentation of RGE with LAB [1]: most significant decrease | Fecal recovery, change by the amoxicillin treatment [2]: increased | Ginsenosides identified in urine [2]: identified in urine | Fecal recovery, change by LAB treatment [3]: significantly decreased | AUC ([6]; male, ICR, mouse, plasma, po, 2 g/kg, Amoxicillin 3 days pretreatment, read-out: AUC): 926 ± 439 ng·h/mL | Cmax ([6]; male, ICR, mouse, plasma, po, 2 g/kg, Amoxicillin 3 days pretreatment, read-out: Cmax): 28.2 ± 12.9 ng/mL | Half-Life ([6]; male, ICR, mouse, plasma, po, 2 g/kg, Amoxicillin 3 days pretreatment, read-out: Half-life (converted)): 21.7 ± 3.6 h | MRT ([6]; male, ICR, mouse, plasma, po, 2 g/kg, Amoxicillin 3 days pretreatment, read-out: MRT): 19.3 ± 1.4 h | AUC ([6]; male, ICR, mouse, plasma, po, 2 g/kg, Control, plasma, n = 3, read-out: AUC): 896 ± 81.3 ng·h/mL | Cmax ([6]; male, ICR, mouse, plasma, po, 2 g/kg, Control, plasma, read-out: Cmax): 41.3 ± 14.3 ng/mL | Half-Life ([6]; male, ICR, mouse, plasma, po, 2 g/kg, Control, plasma, read-out: Half-Life (converted)): 25.9 ± 4.7 h | MRT ([6]; male, ICR, mouse, plasma, po, 2 g/kg, Control, plasma, read-out: MRT): 16.3 ± 2.7 h | Tmax ([6]; male, ICR, mouse, plasma, Amoxicillin 3 days pretreatment, read-out: Tmax): 8 h | Plasma concentrations, amoxicillin treatment compared to the control group [6]: not significantly affected | Ratio of liver AUC to plasma AUC [7]: < 0.2 | AUC ([5]; male, ICR, mouse, plasma, po, 2 g/kg, AUC, Amoxicillin 3 days then water 7 days): 752 ± 478 ng·h/mL | AUC ([5]; male, ICR, mouse, plasma, po, 2 g/kg, AUC, Amoxicillin + LAB (LAB 2 g/kg once daily 7 days)): 622 ± 164 ng·h/mL | Cmax ([5]; male, ICR, mouse, plasma, po, 2 g/kg, Cmax, Amoxicillin 3 days then water 7 days): 23.7 ± 11.6 ng/mL | Cmax ([5]; male, ICR, mouse, plasma, po, 2 g/kg, Cmax, Amoxicillin + LAB): 26.2 ± 4.6 ng/mL | Half-Life ([5]; male, ICR, mouse, plasma, po, 2 g/kg, Half-Life, Amoxicillin 3 days then water 7 days): 20.1 ± 2.2 h | Half-Life ([5]; male, ICR, mouse, plasma, po, 2 g/kg, Half-life, Amoxicillin + LAB): 16.2 ± 0.9 h | MRT ([5]; male, ICR, mouse, plasma, po, 2 g/kg, MRT, Amoxicillin 3 days then water 7 days): 18.6 ± 1.6 h | MRT ([5]; male, ICR, mouse, plasma, po, 2 g/kg, MRT, Amoxicillin + LAB): 16.9 ± 1 h | Tmax ([5]; male, ICR, mouse, plasma, po, 2 g/kg, Tmax, Amoxicillin 3 days then water 7 days): 3.3 ± 1.2 h | Tmax ([5]; male, ICR, mouse, plasma, po, 2 g/kg, Tmax, Amoxicillin + LAB): 4.7 ± 3.1 h | Detection in mouse plasma following repeated LAB administration in addition to amoxicillin [5]: detected | Plasma exposure / pharmacokinetic parameters, LAB treatment compared with amoxicillin group [5]: not different

Compound: CC(C)=CCC[C@](C)(O[C@@H]1O[C@H](CO)[C@@H](O)[C@H](O)[C@H]1O)[C@H]1CC[C@]2(C)[C@@H]1[C@H](O)C[C@@H]1[C@@]3(C)CC[C@H](O)C(C)(C)[C@@H]3[C@@H](O[C@@H]3O[C@H](CO)[C@@H](O)[C@H](O)[C@H]3O[C@@H]3O[C@@H](C)[C@H](O)[C@@H](O)[C@H]3O)C[C@]12C [GRe]
Alteration of ginsenoside by fermentation of RGE with LAB [1]: most significant decrease | Fecal recovery, change by the amoxicillin treatment [2]: increased | Ginsenosides identified in urine [2]: identified in urine | Fecal recovery, change by LAB treatment [3]: significantly decreased | Metabolite formation on incubation of single ginsenoside with LAB [4]: produced GRh1
